Results: US10934274B2, “Quinoline derivatives as TAM RTK inhibitors” (Qurient Co., Ltd., priority 2015, dated 2021)

Legend:
Mer = target: T1, Mer (Homo sapiens, UniProt Q12866); assay: LanthaScreen Eu kinase binding assay, Mer; conditions: Tracer 236
T1 construct: purchased Life Technologies
T1 sequence (Q12866 21-999): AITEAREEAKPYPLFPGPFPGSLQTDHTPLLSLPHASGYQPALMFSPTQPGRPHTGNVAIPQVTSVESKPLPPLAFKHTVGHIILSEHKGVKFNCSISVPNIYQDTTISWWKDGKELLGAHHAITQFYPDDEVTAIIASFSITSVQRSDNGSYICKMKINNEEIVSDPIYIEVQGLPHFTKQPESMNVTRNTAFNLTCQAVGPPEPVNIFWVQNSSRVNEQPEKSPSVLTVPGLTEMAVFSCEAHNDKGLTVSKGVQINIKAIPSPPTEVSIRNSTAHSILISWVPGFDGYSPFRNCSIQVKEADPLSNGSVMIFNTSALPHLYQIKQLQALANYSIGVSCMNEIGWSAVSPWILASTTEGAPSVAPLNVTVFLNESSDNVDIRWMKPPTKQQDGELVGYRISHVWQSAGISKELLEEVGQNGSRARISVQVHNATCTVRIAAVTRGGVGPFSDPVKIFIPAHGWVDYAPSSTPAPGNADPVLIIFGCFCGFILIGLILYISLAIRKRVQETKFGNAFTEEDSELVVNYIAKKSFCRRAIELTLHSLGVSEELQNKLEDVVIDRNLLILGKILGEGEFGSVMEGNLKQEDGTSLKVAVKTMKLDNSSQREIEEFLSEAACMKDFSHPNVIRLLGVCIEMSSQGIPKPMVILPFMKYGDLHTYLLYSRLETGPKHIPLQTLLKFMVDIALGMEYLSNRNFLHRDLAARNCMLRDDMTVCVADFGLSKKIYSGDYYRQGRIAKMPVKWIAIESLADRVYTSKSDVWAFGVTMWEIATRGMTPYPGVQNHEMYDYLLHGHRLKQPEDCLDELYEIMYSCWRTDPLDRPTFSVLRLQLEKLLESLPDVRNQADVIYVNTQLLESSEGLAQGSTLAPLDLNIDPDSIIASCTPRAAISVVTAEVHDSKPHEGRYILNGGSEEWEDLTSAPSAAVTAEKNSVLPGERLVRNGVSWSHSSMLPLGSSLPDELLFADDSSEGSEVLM
Protocol: (§1) LanthaScreen® Eu Kinase Binding assays were conducted at Life Technologies using the manufacturer's specifications for each kinase indicated.
(§2) Briefly, the principle behind this assay is based upon the binding and displacement of an Alexa Fluor 647-labeled tracer to the kinase of interest. Binding of the tracer to the kinase is detected using an EU-labeled anti-tag antibody. Simultaneous binding of both the tracer and antibody to the kinase gives rise to a FRET-signal. Binding of an inhibitor to the kinase competes for binding with the tracer, resulting in a loss of FRET-signal.
(§3) Binding Assay Protocol for AXL, Mer, Tyro3 and Met
(§4) A given compound was diluted in DMSO to make a stock compound solution. The stock compound solution was serially diluted over eight steps in DMSO. Each diluted compound solution in DMSO was diluted in kinase buffer. Afterwards four kinds of working solution were prepared. First, Tracer-Working solution consists of Tracer 236 and Kinase Buffer. Second, Axl, Mer, Tyro3 or Met/anti-GST-AB-Working solution contained one of the kinases Axl, Mer, Tyro3, Met or anti-GST-AB (=anti glutathione-S-transferase antibody) in Kinase Buffer. Third, anti-GST-AB-Working solution was made with anti-GST-AB and Kinase Buffer. Last, in the DMSO-Working solution DMSO was added to Kinase Buffer to a final concentration to 3%. Each of the four kinds of working solutions were separately added to the assay plate and then incubated for 1 h at room temperature. After incubation, the assay plate was measured with respect to the FRET-Signal with the EnVision (Perkin Elmer) using the program LanthaHTRF-Assay. Data evaluation was done in the Quattro Workflow software.
(§5) Table 1 summarises the results obtained for AXL, Mer and Tyro3-kinases binding assays; table 2 summarises the results obtained for the Met kinase binding assay.

Met = target: T2, Met (Homo sapiens, UniProt P08581); assay: LanthaScreen Eu kinase binding assay, Met; conditions: Tracer 236, read-out: cMet kinase binding activity (Kd)
T2 construct: purchased Life Technologies
T2 sequence (P08581 25-1390): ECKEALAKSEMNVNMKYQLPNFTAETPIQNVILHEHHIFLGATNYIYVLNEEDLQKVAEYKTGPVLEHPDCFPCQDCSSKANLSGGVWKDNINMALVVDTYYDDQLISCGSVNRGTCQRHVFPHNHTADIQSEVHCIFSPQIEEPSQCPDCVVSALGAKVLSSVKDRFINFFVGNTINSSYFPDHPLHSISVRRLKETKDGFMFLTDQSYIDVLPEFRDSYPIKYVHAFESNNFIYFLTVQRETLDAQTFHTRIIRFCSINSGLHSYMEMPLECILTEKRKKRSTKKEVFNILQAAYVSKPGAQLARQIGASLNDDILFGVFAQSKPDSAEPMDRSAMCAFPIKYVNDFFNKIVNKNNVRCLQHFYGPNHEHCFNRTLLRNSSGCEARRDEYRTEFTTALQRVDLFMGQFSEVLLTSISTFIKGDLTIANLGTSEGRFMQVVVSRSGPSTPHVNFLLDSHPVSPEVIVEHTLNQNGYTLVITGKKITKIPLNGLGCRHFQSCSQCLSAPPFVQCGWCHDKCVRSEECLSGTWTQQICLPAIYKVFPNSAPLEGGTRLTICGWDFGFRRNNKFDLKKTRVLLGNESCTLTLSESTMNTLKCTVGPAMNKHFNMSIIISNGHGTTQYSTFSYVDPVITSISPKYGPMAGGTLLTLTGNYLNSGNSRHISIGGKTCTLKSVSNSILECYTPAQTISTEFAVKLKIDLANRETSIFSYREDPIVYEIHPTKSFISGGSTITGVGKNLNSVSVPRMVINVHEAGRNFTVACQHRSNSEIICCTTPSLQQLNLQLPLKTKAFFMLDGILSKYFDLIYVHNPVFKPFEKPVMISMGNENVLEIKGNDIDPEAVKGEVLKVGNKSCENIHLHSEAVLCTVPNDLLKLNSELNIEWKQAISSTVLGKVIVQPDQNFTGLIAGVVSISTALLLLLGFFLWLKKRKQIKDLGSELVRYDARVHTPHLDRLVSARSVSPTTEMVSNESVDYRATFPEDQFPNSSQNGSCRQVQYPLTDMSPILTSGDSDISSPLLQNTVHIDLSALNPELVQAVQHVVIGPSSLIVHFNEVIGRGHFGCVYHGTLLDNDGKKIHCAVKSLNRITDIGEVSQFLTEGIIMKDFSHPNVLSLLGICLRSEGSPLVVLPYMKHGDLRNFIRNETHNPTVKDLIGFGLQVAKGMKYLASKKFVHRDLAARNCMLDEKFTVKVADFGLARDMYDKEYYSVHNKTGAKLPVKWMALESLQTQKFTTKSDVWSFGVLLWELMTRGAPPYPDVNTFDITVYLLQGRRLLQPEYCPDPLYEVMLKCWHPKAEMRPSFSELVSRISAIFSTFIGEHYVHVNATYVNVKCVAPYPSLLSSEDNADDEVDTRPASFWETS
Protocol: as §1, §2, §3, §4, §5

Axl = target: T3, Axl (Homo sapiens, UniProt P30530); assay: LanthaScreen Eu kinase binding assay, Axl; conditions: Tracer 236
T3 construct: purchased Life Technologies
T3 sequence (P30530 26-894): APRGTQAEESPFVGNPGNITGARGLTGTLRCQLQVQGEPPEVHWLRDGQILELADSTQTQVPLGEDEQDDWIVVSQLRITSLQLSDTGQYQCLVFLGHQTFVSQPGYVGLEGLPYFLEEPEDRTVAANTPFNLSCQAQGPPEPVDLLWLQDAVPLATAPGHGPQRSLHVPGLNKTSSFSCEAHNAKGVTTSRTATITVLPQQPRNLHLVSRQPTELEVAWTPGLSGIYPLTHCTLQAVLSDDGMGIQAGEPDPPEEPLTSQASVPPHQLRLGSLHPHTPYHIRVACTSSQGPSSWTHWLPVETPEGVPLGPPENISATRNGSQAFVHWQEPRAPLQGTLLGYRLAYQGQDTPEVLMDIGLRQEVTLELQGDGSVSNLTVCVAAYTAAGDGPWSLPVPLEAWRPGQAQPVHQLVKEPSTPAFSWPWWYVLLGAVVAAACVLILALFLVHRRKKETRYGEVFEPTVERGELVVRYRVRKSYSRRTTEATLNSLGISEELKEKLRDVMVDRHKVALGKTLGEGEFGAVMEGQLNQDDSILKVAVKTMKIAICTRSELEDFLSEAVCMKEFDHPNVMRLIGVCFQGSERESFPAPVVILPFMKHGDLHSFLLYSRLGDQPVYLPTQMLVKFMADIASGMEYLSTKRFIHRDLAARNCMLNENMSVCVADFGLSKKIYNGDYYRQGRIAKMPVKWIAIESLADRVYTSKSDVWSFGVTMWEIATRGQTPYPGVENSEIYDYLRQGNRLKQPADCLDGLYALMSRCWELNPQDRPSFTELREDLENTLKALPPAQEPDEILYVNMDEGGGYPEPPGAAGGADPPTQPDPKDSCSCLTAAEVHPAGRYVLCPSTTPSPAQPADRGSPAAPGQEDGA
Protocol: as §1, §2, §3, §4, §5

TYRO3 = target: T4, TYRO3 (Homo sapiens, UniProt Q06418); assay: LanthaScreen Eu kinase binding assay, TYRO3; conditions: Tracer 236
T4 construct: purchased Life Technologies
T4 sequence (Q06418 41-890): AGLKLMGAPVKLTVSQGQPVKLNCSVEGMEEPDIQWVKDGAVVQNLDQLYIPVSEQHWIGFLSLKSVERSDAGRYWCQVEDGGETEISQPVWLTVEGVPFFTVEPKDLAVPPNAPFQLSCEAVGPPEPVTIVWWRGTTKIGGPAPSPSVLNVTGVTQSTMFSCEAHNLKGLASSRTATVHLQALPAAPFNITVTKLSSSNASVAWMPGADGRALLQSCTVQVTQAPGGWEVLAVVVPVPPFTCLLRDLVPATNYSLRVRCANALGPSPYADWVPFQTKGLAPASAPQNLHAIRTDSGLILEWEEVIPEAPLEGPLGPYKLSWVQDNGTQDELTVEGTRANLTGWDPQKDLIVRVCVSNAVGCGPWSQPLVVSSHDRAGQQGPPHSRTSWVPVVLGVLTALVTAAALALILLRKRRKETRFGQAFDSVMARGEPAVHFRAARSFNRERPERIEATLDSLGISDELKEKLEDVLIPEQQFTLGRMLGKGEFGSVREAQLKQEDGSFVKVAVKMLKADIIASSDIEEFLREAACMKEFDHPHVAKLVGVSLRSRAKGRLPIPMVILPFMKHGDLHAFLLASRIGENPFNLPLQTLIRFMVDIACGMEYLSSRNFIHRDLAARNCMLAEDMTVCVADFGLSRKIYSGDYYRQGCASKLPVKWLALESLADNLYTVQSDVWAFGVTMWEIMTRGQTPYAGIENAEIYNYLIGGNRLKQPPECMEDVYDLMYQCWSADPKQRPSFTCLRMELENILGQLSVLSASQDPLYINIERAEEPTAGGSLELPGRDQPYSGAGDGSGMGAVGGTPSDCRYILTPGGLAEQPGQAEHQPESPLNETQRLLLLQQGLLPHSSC
Protocol: as §1, §2, §3, §4, §5

## CCOc1c(C(=O)Nc2ccc(Oc3ccnc4cc(OC)c(OC)cc34)cn2)nn(-c2cccnc2)c1C [Compound 156]
Mer
  Kd: < 0.1 µM
Met
  Kd: < 0.1 µM
Axl
  Kd: < 0.1 µM
TYRO3
  Kd: < 0.1 µM

## COc1cc2c(Oc3ccc(NC(=O)c4c(OCC(F)(F)F)cnn4-c4cnc(N)nc4)nc3)ccnc2cc1OC(C)C [Compound 256]
Mer
  Kd: 0.1 to 1 µM
Met
  Kd: ≥ 1 µM
Axl
  Kd: 0.1 to 1 µM
TYRO3
  Kd: ≥ 1 µM

## CCC(C)Oc1cc2nccc(Oc3ccc(NC(=O)c4nn(-c5cnc(N)nc5)cc4OCC(F)(F)F)nc3)c2cc1OC (stereo not shown) [Compound 235]
Mer
  Kd: < 0.1 µM
Met
  Kd: 0.1 to 1 µM
Axl
  Kd: < 0.1 µM
TYRO3
  Kd: < 0.1 µM

## CCOc1cn(-c2cnccn2)nc1C(=O)Nc1cc(C)c(Oc2ccnc3cc(OC)c(OC)cc23)cn1 [Compound 163]
Mer
  Kd: < 0.1 µM
Met
  Kd: < 0.1 µM
Axl
  Kd: < 0.1 µM
TYRO3
  Kd: ≥ 1 µM

## CCOc1cn(-c2cnc(N)nc2)nc1C(=O)Nc1ccc(Oc2ccnc3cc(OC)c(OC)cc23)c(Cl)c1 [Compound 146]
Mer
  Kd: < 0.1 µM
Met
  Kd: < 0.1 µM
Axl
  Kd: < 0.1 µM
TYRO3
  Kd: < 0.1 µM

## CCOc1cn(-c2cccnc2)nc1C(=O)Nc1cnc(Oc2ccnc3cc(OC)c(OC)cc23)nc1 [Compound 60]
Mer
  Kd: ≥ 1 µM
Met
  Kd: ≥ 1 µM
Axl
  Kd: ≥ 1 µM
TYRO3
  Kd: ≥ 1 µM

## CCOc1cnn(Cc2cnccc2C)c1C(=O)Nc1ccc(Oc2ccnc3cc(OC)c(OC)cc23)cc1F [Compound 228]
Mer
  Kd: 0.1 to 1 µM
Met
  Kd: 0.1 to 1 µM
Axl
  Kd: ≥ 1 µM
TYRO3
  Kd: ≥ 1 µM

## CCOc1cn(C2CCN(C)CC2)nc1C(=O)Nc1ccc(Oc2ccnc3cc(OC)c(OC)cc23)cc1F [Compound 222]
Mer
  Kd: 0.1 to 1 µM
Met
  Kd: ≥ 1 µM
Axl
  Kd: 0.1 to 1 µM
TYRO3
  Kd: ≥ 1 µM

## CCOc1cn(-c2cnccc2CC(=O)OC)nc1C(=O)Nc1ccc(Oc2ccnc3cc(OC)c(OC)cc23)cn1 [Compound 176]
Mer
  Kd: < 0.1 µM
Met
  Kd: < 0.1 µM
Axl
  Kd: < 0.1 µM
TYRO3
  Kd: 0.1 to 1 µM

## CCOc1cnn(-c2ccoc2)c1C(=O)Nc1ccc(Oc2ccnc3cc(OC)c(OC)cc23)cn1 [Compound 25]
Mer
  Kd: ≥ 1 µM
Met
  Kd: ≥ 1 µM
Axl
  Kd: 0.1 to 1 µM
TYRO3
  Kd: ≥ 1 µM

## CCOc1cn(-c2cncc(C)n2)nc1C(=O)Nc1ccc(Oc2ccnc3cc(OC)c(OC)cc23)cn1 [Compound 157]
Mer
  Kd: < 0.1 µM
Met
  Kd: < 0.1 µM
Axl
  Kd: < 0.1 µM
TYRO3
  Kd: ≥ 1 µM

## CCOc1cn(CCN(C)C)nc1C(=O)Nc1ccc(Oc2ccnc3cc(OC)c(OC)cc23)cn1 [Compound 49]
Mer
  Kd: < 0.1 µM
Met
  Kd: 0.1 to 1 µM
Axl
  Kd: 0.1 to 1 µM
TYRO3
  Kd: 0.1 to 1 µM

## CCOc1cn(-c2cnccc2C)nc1C(=O)NC1CC2(C1)CC(Oc1ccnc3cc(OC)c(OC)cc13)C2 (stereo not shown) [Compound 221]
Mer
  Kd: ≥ 1 µM
Met
  Kd: ≥ 1 µM
Axl
  Kd: ≥ 1 µM
TYRO3
  Kd: ≥ 1 µM

## CCOc1cnn(CCO)c1C(=O)Nc1ccc(Oc2ccnc3cc(OC)c(OC)cc23)cn1 [Compound 72]
Mer
  Kd: 0.1 to 1 µM
Met
  Kd: 0.1 to 1 µM
Axl
  Kd: ≥ 1 µM
TYRO3
  Kd: ≥ 1 µM

## CCOc1cnn(CCn2cccn2)c1C(=O)Nc1ccc(Oc2ccnc3cc(OC)c(OC)cc23)cn1 [Compound 42]
Mer
  Kd: < 0.1 µM
Met
  Kd: 0.1 to 1 µM
Axl
  Kd: 0.1 to 1 µM
TYRO3
  Kd: ≥ 1 µM

## CCOc1cnn(-c2cnc(C(F)(F)F)nc2)c1C(=O)Nc1ccc(Oc2ccnc3cc(OC)c(OC)cc23)cn1 [Compound 145]
Mer
  Kd: ≥ 1 µM
Met
  Kd: ≥ 1 µM
Axl
  Kd: ≥ 1 µM
TYRO3
  Kd: ≥ 1 µM

## CCOc1cnn(-c2cncn2C)c1C(=O)Nc1ccc(Oc2ccnc3cc(OC)c(OC)cc23)cn1 [Compound 15]
Mer
  Kd: 0.1 to 1 µM
Met
  Kd: 0.1 to 1 µM
Axl
  Kd: ≥ 1 µM
TYRO3
  Kd: ≥ 1 µM

## CCOc1cn(-c2cncnc2)nc1C(=O)Nc1ccc(Oc2ccnc3cc(OC)c(OC)cc23)cn1 [Compound 2]
Mer
  Kd: < 0.1 µM
Met
  Kd: < 0.1 µM
Axl
  Kd: < 0.1 µM
TYRO3
  Kd: < 0.1 µM

## CCOc1cn(-c2cnc(C(=O)O)nc2)nc1C(=O)Nc1ccc(Oc2ccnc3cc(OC)c(OC)cc23)cn1 [Compound 88]
Mer
  Kd: 0.1 to 1 µM
Met
  Kd: 0.1 to 1 µM
Axl
  Kd: ≥ 1 µM
TYRO3
  Kd: ≥ 1 µM

## CCC(C)Oc1cc2nccc(Oc3ccc(NC(=O)c4c(OCC(F)(F)F)cnn4-c4cnc(N)nc4)nc3)c2cc1OC (stereo not shown) [Compound 238]
Mer
  Kd: 0.1 to 1 µM
Met
  Kd: ≥ 1 µM
Axl
  Kd: ≥ 1 µM
TYRO3
  Kd: ≥ 1 µM

## CCOc1c[nH]nc1C(=O)Nc1ccc(Oc2ccnc3cc(OC)c(OC)cc23)cn1 [Compound 22]
Mer
  Kd: < 0.1 µM
Met
  Kd: 0.1 to 1 µM
Axl
  Kd: 0.1 to 1 µM
TYRO3
  Kd: < 0.1 µM

## CCOc1cn(-c2ccc(C#N)nc2)nc1C(=O)Nc1ccc(Oc2ccnc3cc(OC)c(OC)cc23)cn1 [Compound 50]
Mer
  Kd: ≥ 1 µM
Met
  Kd: ≥ 1 µM
Axl
  Kd: 0.1 to 1 µM
TYRO3
  Kd: ≥ 1 µM
